Columns and labels:
[1] = system: cryopreserved hepatocytes from cynomolgus monkeys; experiment: Monkey Hepatocyte Stability Assay; assay type: in vitro ADME, cynomolgus monkey
Protocol: (§1) The metabolic stability of Compound 1 was evaluated using cryopreserved hepatocytes from mice, rats, dogs, cynomolgus monkeys, and humans.
(§2) 50 μL of 1 mM intermediate solutions for each test compound was prepared by adding 5 μL of 10 mM stock solution to 45 μL of a 1:1 mixture of water and acetonitrile. A 2 μM working stocks for each test compound were prepared in incubation media, InvitroGRO™ KHB (Bio IVT, Westbury, NY, USA), by adding 2 μL of 1 mM intermediate stock to 998 μL of incubation media.
(§3) To thaw the hepatocytes, InvitroGRO™ HT thawing medium (BioIVT, Westbury, NY, USA) was prewarmed to 37° C., and 48 mL of warmed thawing medium was transferred to a sterile 50 mL conical tube. The hepatocyte vial was removed from the liquid nitrogen Dewar, and gently thawed in a water bath at 37° C. for 1-2 minutes, then the contents of the vial were emptied into a conical tube with prewarmed InvitroGRO HT medium. 1 mL of prewarmed InvitroGRO HT medium was added to each emptied hepatocyte vial to resuspend any remaining cells, and the contents were pipetted into the hepatocyte suspension. The tube containing the hepatocyte suspension was centrifuged at 50*g for 5 minutes. The supernatant was removed carefully, and the remaining pellet was resuspended by adding 1 mL of incubation media, InvitroGRO KHB, and gently shaking until there were no clumps.
(§4) Cell viability was determined using the trypan blue method. 25 μL of hepatocyte cell suspension was added to a trypan blue (TB) solution (containing 775 μL InvitroGRO KHB and 200 μL of Trypan Blue). Cell count was taken using a hemacytometer.
(§5) For mouse hepatocytes, 200 μL of hepatocytes (0.8×10^6 cells/mL) were added to the wells of a 48 well plate (Catalog No. 92048, TPP Techno Plastic Products AG, Trasadingen, Switzerland) and pre-incubated for 30 minutes at 37° C. For rat, dog, monkey, […], 200 μL of hepatocytes (2×10^6 cells/mL) were added to the wells of a 48 well plate (Catalog No. 92048, TPP Techno Plastic Products AG, Trasadingen, Switzerland) and pre-incubated for 30 minutes at 37° C.
(§6) For all species of hepatocytes, once the pre-incubation period was complete, 200 μL of 2 μM working stock of test compound was added to the wells of the plate, and the plate was vortexed on a Vibramax™ 100 (P/N 544-21200-00, Heidolph Instruments GmbH & Co. KG, Schwabach, Germany) at 500 rpm in a 37° C. CO2 incubator (Model No. 51026280, ThermoFisher Scientific, Waltham, MA, USA). At each time point of 0, 15, 30, 60, 90, and 120 minutes, 50 μL of incubation mixture was precipitated with 200 μL of acetonitrile containing internal standard.
(§7) At the end of the experiment, the samples were centrifuged at 4000 rpm for 10 minutes. […]

[2] = Monkey Hepatocyte Stability Assay; assay type: in vitro ADME, cynomolgus monkey; details: cryopreserved hepatocytes
Protocol: as §1, §2, §3, §4, §5, §6, §7

For COc1cc(-c2cn(C)c(=O)c(C)c2C)cc(OC)c1CN1CC[C@H](N2CCN(c3ccc(N[C@H]4CCC(=O)NC4=O)cc3F)CC2)C(F)(F)C1 [Compound 1, (S)-3-((4-(4-((S)-1-(2,6-dimethoxy-4-(1,4,5-trimethyl-6-oxo-1,6-dihydropyridin-3-yl)benzyl)-3,3-difluoropiperidin-4-yl)piperazin-1-yl)-3-fluorophenyl)amino)-piperidine-2,6-dione], the “CLhb scaled well stirred” value [1] was 24.7 mL/min/kg body wt, the half-life at 1 µM [2] was 44.2 min and the hepatocyte CLint at 1 µM ([2]; read-out: CL int cells) was 15.7 µL/min/1e6 cells. It also gave a CLint scaled at 1 µM ([2]; read-out: CL int in vivo) of 56.5 mL/min/kg.
